The values below come from patent publication US20110118226A1 (priority 2008, published 2011).

The conditions of data set [1]: cited from earlier work.
The nature of data set [2]: Stability of danazol in analysis medium and receptor phase (3% cetrimide solution). It counts as physicochemical. To be noted: analysis medium (mobile phase) and receptor phase (3% cetrimide solution).

Take `C#C[C@]1(O)CC[C@H]2[C@@H]3CCC4=Cc5oncc5C[C@]4(C)[C@H]3CC[C@@]21C` [Danazol, (17α)-Pregna-2,4-dien-20-yno[2,3-d]isoxazol-17β-ol]: in data set [1], the “Bioavailability of oral danazol” value is given as 11%. The “Time for which danazol was stable” value in data set [2] was determined as 30 h.
